Read-outs that look alike come from different tables or passages of the source.

This is an account of results in article PMC3534288 (BMC Biophysics, 2012).

For data set [1] the following is noted: sulfonamide group, 25°C; cited from earlier work.
Data set [2] is described as follows: Protonation of inhibitor sulfonamide group (ITC titration with acid, pKa). In kind it is physicochemical. The procedure:
Dissection of contribution from inhibitor protonation requires a set of experiments with pure inhibitor in the absence of protein to determine the pKa and the enthalpy of inhibitor protonation. The deprotonation pKa could be determined by pH titration as previously explained. The enthalpy of protonation is determined by titrating alkaline solution of the inhibitor with acid. […] Pure crystalline inhibitor is in protonated electrostatically neutral form. Therefore, 1.5 equivalent of NaOH is added to the inhibitor solution to make it deprotonated. […] This enthalpy of the second transition is the enthalpy of interest.

For data set [3], the target named is CA II. Particulars: pH 7.0; read-out: observed Kis and Kds; cited from earlier work.
The target of data set [4] is T1, hCA XIII (Homo sapiens, UniProt Q8N1Q1).
T1 construct: made in house; host or cells: Escherichia coli
T1 sequence (Q8N1Q1 whole entry): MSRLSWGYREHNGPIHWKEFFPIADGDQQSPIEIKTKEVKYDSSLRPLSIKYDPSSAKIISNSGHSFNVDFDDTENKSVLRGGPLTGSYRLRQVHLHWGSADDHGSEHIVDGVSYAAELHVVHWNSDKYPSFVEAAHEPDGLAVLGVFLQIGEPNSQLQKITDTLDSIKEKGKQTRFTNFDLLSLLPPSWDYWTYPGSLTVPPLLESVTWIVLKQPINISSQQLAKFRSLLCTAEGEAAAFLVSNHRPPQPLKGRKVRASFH
The data set can be described thus: Intrinsic binding parameters by dissection of binding-linked protonation reactions. Particulars: deprotonated inhibitor anion to protonated zinc-bound water form, 25°C. From the text:
Here we use the same formalism to dissect protonation reactions as previously described. The intrinsic binding constant is related to the observed binding constant and the fractions of active binding species:
(1) Kb=Kb_obs/fRSO2NH^−fCAZnH2O
Where the fractions deprotonated sulfonamide and protonated CA as a function of pH are:
(4) ΔbHintr=ΔbHobs−ninhΔb_proton_inhH−nCAΔb_proton_CAH+nΔb_proton_bufH
The intrinsic entropy of binding was obtained by subtracting Gibbs free energy from the enthalpy using standard thermodynamic equations. The intrinsic heat capacity of binding could be determined by carrying out all or part of ITC and TSA experiments at several temperatures.

Data set [5] has as its target T1, hCA XIII. The data set can be described thus: Isothermal titration calorimetry (ITC) of inhibitor binding to hCA XIII, observed parameters.
Protocol: ITC experiments were performed using a VP-ITC instrument (Microcal, Inc., GE-Healthcare, Northampton, MA, USA). For ligand-protein binding experiments 5–20 μM (usually 10) protein solution in the cell and 50–200 μM (usually 100) ligand solution in the syringe were used. A typical experiment consisted of 25–30 injections (usually 25), 10 μL each, with 3–5 min (usually 4 min) intervals between injections. Experiments were performed at different temperatures in various buffers containing 50 mM NaCl and 0.5-2% DMSO concentration. All experiments were repeated at least twice. For the determination of ligand binding at various pHs, the solution pH was carefully checked in the presence of protein and ligand, in the cell and syringe, respectively.

On to `CCOc1ccc2nc(S(N)(=O)=O)sc2c1` [EZA, ethoxzolamide], for which, in data set [1], the pKa is listed as 8.0. In addition, the Δb_protonCp in data set [2] (slope of protonation enthalpy versus temperature) is given as 88.7 J/(mol × K). In data set [2] (sulfonamide group, 25°C), this compound came in with a Ka of 10 nM, a TΔb_protonS of 3.87 kcal/mol, a Δb_protonG of -10.9 kcal/mol and a Δb_protonH of -7.05 kcal/mol. Also, the Δb_protonS in data set [2] (sulfonamide group, 25°C) was 54.2 J/(mol × K).
As to `CS(N)(=O)=O` [methanesulfonamide], in data set [3], the Kd is 300 µM.
Consider `CC(=O)Nc1nnc(S(N)(=O)=O)s1` [AZM, acetazolamide], for which, in data set [4], the TΔbSintr was -2.13 kcal/mol, the ΔbGintr was -9.92 kcal/mol, the ΔbHintr was -12 kcal/mol and the ΔbSintr is given as −29.8 J/(mol × K). Further, in data set [1], the Ka was 50 nM, the TΔb_protonS was 4.47 kcal/mol, the pKa was 7.30 and the Δb_protonG is -9.97 kcal/mol. Also, in data set [1], the Δb_protonH was -5.5 kcal/mol and the Δb_protonS is given as 62.6 J/(mol × K).
For `NS(=O)(=O)C(F)(F)F` [TFMSA, trifluoromethanesulfonamide], in data set [4], the TΔbSintr was 2.44 kcal/mol, the ΔbGintr is -10.5 kcal/mol, the ΔbHintr is -8.01 kcal/mol and the ΔbSintr is listed as 34.3 J/(mol × K). Further, the “net number of uptaken or released protons upon binding” value in data set [5] (pH 7.0, 25°C, slope of observed enthalpy versus buffer protonation enthalpy) is reported as “approximately equal to zero”. Moreover, the “observed enthalpies of binding, span over pH and buffers” value in data set [5] (sodium phosphate and TRIS chloride buffers, 25°C, as a function of pH) is recorded as −10 to −70 kJ/mol.
